Data published in PubChem BioAssay (NCI).
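Values below derive from 48-hour exposures of cells grown in 96-well plates, with endpoints linearly interpolated between the two concentrations bracketing the appropriate inhibition level. Abbreviation: GI50, concentration required for 50% inhibition of growth. TGI is the concentration that stops growth completely.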

Key:
Test in all cases: NCI tumour cell line growth inhibition, 48 h
U251 CNS = tested on: U251 CNS
PC-3 prostate = tested on: PC-3 prostate
M14 melanoma = tested on: M14 melanoma
LOX IMVI melanoma = tested on: LOX IMVI melanoma
K-562 leukemia = tested on: K-562 leukemia
MALME-3M melanoma = tested on: MALME-3M melanoma
COLO 205 colon = tested on: COLO 205 colon
SF-295 CNS = tested on: SF-295 CNS
UACC-257 melanoma = tested on: UACC-257 melanoma
SR leukemia = tested on: SR leukemia
KM12 colon = tested on: KM12 colon
SK-MEL-5 melanoma = tested on: SK-MEL-5 melanoma
HCC-2998 colon = tested on: HCC-2998 colon
CCRF-CEM leukemia = tested on: CCRF-CEM leukemia
A549 NSCLC = tested on: A549 NSCLC
OVCAR-3 ovarian = tested on: OVCAR-3 ovarian
786-0 renal = tested on: 786-0 renal
OVCAR-4 ovarian = tested on: OVCAR-4 ovarian
BT-549 breast = tested on: BT-549 breast
MOLT-4 leukemia = tested on: MOLT-4 leukemia
NCI/ADR-RES ovarian = tested on: NCI/ADR-RES ovarian
HOP-62 NSCLC = tested on: HOP-62 NSCLC
OVCAR-5 ovarian = tested on: OVCAR-5 ovarian
EKVX NSCLC = tested on: EKVX NSCLC
SK-MEL-28 melanoma = tested on: SK-MEL-28 melanoma
HS 578T breast = tested on: HS 578T breast
A498 renal = tested on: A498 renal
HCT-15 colon = tested on: HCT-15 colon
TK-10 renal = tested on: TK-10 renal
OVCAR-8 ovarian = tested on: OVCAR-8 ovarian
SN12C renal = tested on: SN12C renal
NCI-H23 lung = tested on: NCI-H23 lung
NCI-H226 lung = tested on: NCI-H226 lung
T-47D breast = tested on: T-47D breast
SNB-19 CNS = tested on: SNB-19 CNS
HL-60(TB) leukemia = tested on: HL-60(TB) leukemia
NCI-H522 lung = tested on: NCI-H522 lung
SK-OV-3 ovarian = tested on: SK-OV-3 ovarian
HT29 colon = tested on: HT29 colon
HOP-92 NSCLC = tested on: HOP-92 NSCLC
RXF 393 renal = tested on: RXF 393 renal
MDA-MB-468 breast = tested on: MDA-MB-468 breast
HCT-116 colon = tested on: HCT-116 colon
RPMI-8226 leukemia = tested on: RPMI-8226 leukemia
UACC-62 melanoma = tested on: UACC-62 melanoma
NCI-H460 lung = tested on: NCI-H460 lung
SF-268 CNS = tested on: SF-268 CNS
SF-539 CNS = tested on: SF-539 CNS
MCF7 breast = tested on: MCF7 breast
SW-620 colon = tested on: SW-620 colon
MDA-MB-435 = tested on: MDA-MB-435
DU-145 prostate = tested on: DU-145 prostate
ACHN renal = tested on: ACHN renal
CAKI-1 renal = tested on: CAKI-1 renal
IGROV1 ovarian = tested on: IGROV1 ovarian

O=C(Nc1nc2ccc([N+](=O)[O-])cc2s1)Nc1ccccc1I
GI50 (U251 CNS): 3.3 µM
TGI (U251 CNS): 12.7 µM
GI50 (PC-3 prostate): 3.43 µM
TGI (PC-3 prostate): 84.2 µM
GI50 (M14 melanoma): 4.28 µM
TGI (M14 melanoma): 89.8 µM
GI50 (LOX IMVI melanoma): 3.67 µM
TGI (LOX IMVI melanoma): 15.1 µM
GI50 (K-562 leukemia): 3.23 µM
TGI (K-562 leukemia): 13.9 µM
GI50 (MALME-3M melanoma): 2.37 µM
TGI (MALME-3M melanoma): 8.4 µM
GI50 (COLO 205 colon): 4.89 µM
TGI (COLO 205 colon): 20 µM
GI50 (SF-295 CNS): 3.34 µM
TGI (SF-295 CNS): 14.8 µM
GI50 (UACC-257 melanoma): 3.17 µM
TGI (UACC-257 melanoma): 16 µM
GI50 (SR leukemia): 2.06 µM
TGI (SR leukemia): 5.03 µM
GI50 (KM12 colon): 3.82 µM
TGI (KM12 colon): > 100 µM
GI50 (SK-MEL-5 melanoma): 1.86 µM
TGI (SK-MEL-5 melanoma): 3.86 µM
GI50 (HCC-2998 colon): 4.12 µM
TGI (HCC-2998 colon): 23.4 µM
GI50 (CCRF-CEM leukemia): 3.57 µM
TGI (CCRF-CEM leukemia): 52 µM
GI50 (A549 NSCLC): 3.81 µM
TGI (A549 NSCLC): 19.2 µM
GI50 (OVCAR-3 ovarian): 3.11 µM
TGI (OVCAR-3 ovarian): 10.7 µM
GI50 (786-0 renal): 3.61 µM
TGI (786-0 renal): 32.1 µM
GI50 (OVCAR-4 ovarian): 3.94 µM
TGI (OVCAR-4 ovarian): > 100 µM
GI50 (BT-549 breast): 2.86 µM
TGI (BT-549 breast): 10.5 µM
GI50 (MOLT-4 leukemia): 2.92 µM
TGI (MOLT-4 leukemia): 8.41 µM
GI50 (NCI/ADR-RES ovarian): 3.12 µM
TGI (NCI/ADR-RES ovarian): 11.8 µM
GI50 (HOP-62 NSCLC): 6.16 µM
TGI (HOP-62 NSCLC): 21.4 µM
GI50 (OVCAR-5 ovarian): 9.78 µM
TGI (OVCAR-5 ovarian): 86.6 µM
GI50 (EKVX NSCLC): 3.05 µM
TGI (EKVX NSCLC): 12.3 µM
GI50 (SK-MEL-28 melanoma): 3.4 µM
TGI (SK-MEL-28 melanoma): 39 µM
GI50 (HS 578T breast): 3.23 µM
TGI (HS 578T breast): > 100 µM
GI50 (A498 renal): 2.57 µM
TGI (A498 renal): 8.12 µM
GI50 (HCT-15 colon): 3.4 µM
TGI (HCT-15 colon): 14.6 µM
GI50 (TK-10 renal): 3.43 µM
TGI (TK-10 renal): 24.3 µM
GI50 (OVCAR-8 ovarian): 4.58 µM
TGI (OVCAR-8 ovarian): 20.6 µM
GI50 (SN12C renal): 3.1 µM
TGI (SN12C renal): 12.2 µM
GI50 (NCI-H23 lung): 2.76 µM
TGI (NCI-H23 lung): 8.15 µM
GI50 (NCI-H226 lung): 3.77 µM
TGI (NCI-H226 lung): 19.4 µM
GI50 (T-47D breast): 2.57 µM
TGI (T-47D breast): 8.98 µM
GI50 (SNB-19 CNS): 3.32 µM
TGI (SNB-19 CNS): 19 µM
GI50 (HL-60(TB) leukemia): 2.15 µM
TGI (HL-60(TB) leukemia): 7.92 µM
GI50 (NCI-H522 lung): 2.73 µM
TGI (NCI-H522 lung): 9.1 µM
GI50 (SK-OV-3 ovarian): 2.67 µM
TGI (SK-OV-3 ovarian): 9.38 µM
GI50 (HT29 colon): 5.76 µM
TGI (HT29 colon): 20 µM
GI50 (HOP-92 NSCLC): 2.3 µM
TGI (HOP-92 NSCLC): 6.95 µM
GI50 (RXF 393 renal): 4.18 µM
TGI (RXF 393 renal): 24.2 µM
GI50 (MDA-MB-468 breast): 2.41 µM
TGI (MDA-MB-468 breast): 7.79 µM
GI50 (HCT-116 colon): 3.46 µM
TGI (HCT-116 colon): 12.6 µM
GI50 (RPMI-8226 leukemia): 2.08 µM
TGI (RPMI-8226 leukemia): 5.74 µM
GI50 (UACC-62 melanoma): 3.31 µM
TGI (UACC-62 melanoma): 37.1 µM
GI50 (NCI-H460 lung): 3.55 µM
TGI (NCI-H460 lung): 16.4 µM
GI50 (SF-268 CNS): 3.78 µM
TGI (SF-268 CNS): > 100 µM
GI50 (SF-539 CNS): 3.45 µM
TGI (SF-539 CNS): 12.9 µM
GI50 (MCF7 breast): 2.91 µM
TGI (MCF7 breast): 11 µM
GI50 (SW-620 colon): 4.35 µM
TGI (SW-620 colon): 31.7 µM
GI50 (MDA-MB-435): 3.78 µM
TGI (MDA-MB-435): > 100 µM
GI50 (DU-145 prostate): 4.25 µM
TGI (DU-145 prostate): > 100 µM
GI50 (ACHN renal): 3.58 µM
TGI (ACHN renal): 15.6 µM
GI50 (CAKI-1 renal): 3.46 µM
TGI (CAKI-1 renal): > 100 µM
GI50 (IGROV1 ovarian): 3.97 µM
TGI (IGROV1 ovarian): > 100 µM
